Measured values taken from patent US6737383B1, “Herbicidal oxadiazolidines” (priority 1999, dated 2004).

Key:
blackgrass = assay: Test B pre/postemergence blackgrass; type: in vivo, Alopecurus myosuroides
Method in brief: (§1)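 Response is a visual 0-to-10 score relative to untreated plants, where 0 means no effect and 10 means complete control, taken twelve to sixteen days after application. Treatments went onto soil at planting and onto foliage of 1- to 4-leaf plants, using a surfactant-containing non-phytotoxic solvent.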

surinam grass = assay: Test B pre/postemergence surinam grass; type: in vivo, Brachiaria decumbens
Method in brief: as §1

cocklebur = assay: Test B pre/postemergence cocklebur; type: in vivo, Xanthium strumarium
Method in brief: as §1

corn = assay: Test B pre/postemergence corn; type: in vivo, Zea mays
Method in brief: as §1

crabgrass = assay: Test B pre/postemergence crabgrass; type: in vivo, Digitaria sanguinalis
Method in brief: as §1

giant foxtail = assay: Test B pre/postemergence giant foxtail; type: in vivo, Setaria faberii
Method in brief: as §1

morningglory = assay: Test B pre/postemergence morningglory; type: in vivo, Ipomoea hederacea
Method in brief: as §1

pigweed = assay: Test B pre/postemergence pigweed; type: in vivo, Amaranthus retroflexus
Method in brief: as §1

rape = assay: Test B pre/postemergence rape; type: in vivo, Brassica napus
Method in brief: as §1

soybean = assay: Test B pre/postemergence soybean; type: in vivo, Glycine max
Method in brief: as §1

sugar beet = assay: Test B pre/postemergence sugar beet; type: in vivo, Beta vulgaris
Method in brief: as §1

velvetleaf = assay: Test B pre/postemergence velvetleaf; type: in vivo, Abutilon theophrasti
Method in brief: as §1

wheat = assay: Test B pre/postemergence wheat; type: in vivo, Triticum aestivum
Method in brief: as §1

wild oat = assay: Test B pre/postemergence wild oat; type: in vivo, Avena fatua
Method in brief: as §1

rice = assay: Test B flood test rice; type: in vivo, Oryza sativa
Method in brief: (§2)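 Each value is a visual injury score relative to controls, with 10 meaning complete control and 0 no effect. Evaluation took place twelve to sixteen days after the 2-leaf-stage plants were treated and kept in the greenhouse.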

smallflower flatsedge = assay: Test B flood test smallflower flatsedge; type: in vivo, Cyperus difformis
Method in brief: as §2

[1] = Preemergence, Rate 62 g/ha, scale of 0 to 10 where 0 is no effect and 10 is complete control
[2] = Preemergence, Rate 250 g/ha, scale of 0 to 10 where 0 is no effect and 10 is complete control
[3] = Preemergence, Rate 500 g/ha, scale of 0 to 10 where 0 is no effect and 10 is complete control
[4] = Rate 62 g/ha, Postemergence, scale 0 to 10 (0 no effect, 10 complete control)
[5] = Rate 125 g/ha, Postemergence, scale of 0 to 10 where 0 is no effect and 10 is complete control
[6] = Rate 125 g/ha, Preemergence, scale of 0 to 10 where 0 is no effect and 10 is complete control
[7] = Rate 250 g/ha, Postemergence, scale of 0 to 10 where 0 is no effect and 10 is complete control
[8] = Rate 500 g/ha, Postemergence, scale 0 to 10, 0 no effect, 10 complete control
[9] = Rate 62 g/ha, headed Pre-emergence (flood test species), scale 0 to 10 (0 no effect, 10 complete control)
[10] = Rate 125 g/ha, Pre-emergence, flood test species, scale 0 to 10 where 0 is no effect and 10 is complete control
[11] = Rate 250 g/ha, Pre-emergence, flood-test species, scale 0 to 10, 0 is no effect, 10 is complete control
[12] = Rate 500 g/ha, Pre-emergence, flood test species, scale 0 to 10 (0 no effect, 10 complete control)

## Cc1ccccc1-n1c(=O)on(C(=O)N(c2ccc3c(c2)CCC3)C(C)C)c1=O [Compound 278]
blackgrass; [1]
  Blackgrass plant response rating: 0
blackgrass; [2]
  Blackgrass plant response rating: 0
blackgrass; [3]
  Plant response rating, Blackgrass: 0
blackgrass; [4]
  Blackgrass plant response rating: 0
blackgrass; [5]
  Blackgrass plant response rating: 0
blackgrass; [6]
  Blackgrass plant response rating: 0
blackgrass; [7]
  Plant response rating, Blackgrass: 0
blackgrass; [8]
  Blackgrass plant response rating: 0
Surinam grass; [1]
  B. signalgrass plant response rating: 0
Surinam grass; [2]
  B. signalgrass plant response rating: 0
Surinam grass; [3]
  Plant response rating, B. signalgrass: 0
Surinam grass; [4]
  B. signalgrass plant response rating: 0
Surinam grass; [5]
  B. signalgrass plant response rating: 0
Surinam grass; [6]
  B. signalgrass plant response rating: 0
Surinam grass; [7]
  Plant response rating, B. signalgrass: 0
Surinam grass; [8]
  B. signalgrass plant response rating: 0
cocklebur; [1]
  Cocklebur plant response rating: 0
cocklebur; [2]
  Cocklebur plant response rating: 0
cocklebur; [3]
  Plant response rating, Cocklebur: 0
cocklebur; [4]
  Cocklebur plant response rating: 0
cocklebur; [5]
  Cocklebur plant response rating: 0
cocklebur; [6]
  Cocklebur plant response rating: 0
cocklebur; [7]
  Plant response rating, Cocklebur: 0
cocklebur; [8]
  Cocklebur plant response rating: 3
corn; [1]
  Corn plant response rating: 0
corn; [2]
  Corn plant response rating: 0
corn; [3]
  Plant response rating, Corn: 0
corn; [4]
  Corn plant response rating: 0
corn; [5]
  Corn plant response rating: 0
corn; [6]
  Corn plant response rating: 0
corn; [7]
  Plant response rating, Corn: 0
corn; [8]
  Corn plant response rating: 0
crabgrass; [1]
  Crabgrass plant response rating: 0
crabgrass; [2]
  Crabgrass plant response rating: 2
crabgrass; [3]
  Plant response rating, Crabgrass: 4
crabgrass; [4]
  Crabgrass plant response rating: 0
crabgrass; [5]
  Crabgrass plant response rating: 0
crabgrass; [6]
  Crabgrass plant response rating: 1
crabgrass; [7]
  Plant response rating, Crabgrass: 0
crabgrass; [8]
  Crabgrass plant response rating: 0
Giant foxtail; [1]
  Giant foxtail plant response rating: 0
Giant foxtail; [2]
  Giant foxtail plant response rating: 2
Giant foxtail; [3]
  Plant response rating, Giant foxtail: 8
Giant foxtail; [4]
  Giant foxtail plant response rating: 0
Giant foxtail; [5]
  Giant foxtail plant response rating: 0
Giant foxtail; [6]
  Giant foxtail plant response rating: 2
Giant foxtail; [7]
  Plant response rating, Giant foxtail: 0
Giant foxtail; [8]
  Giant foxtail plant response rating: 0
morningglory; [1]
  Morningglory plant response rating: 0
morningglory; [2]
  Morningglory plant response rating: 0
morningglory; [3]
  Plant response rating, Morningglory: 0
morningglory; [4]
  Morningglory plant response rating: 3
morningglory; [5]
  Morningglory plant response rating: 3
morningglory; [6]
  Morningglory plant response rating: 0
morningglory; [7]
  Plant response rating, Morningglory: 4
morningglory; [8]
  Morningglory plant response rating: 4
pigweed; [1]
  Redroot pigweed plant response rating: 0
pigweed; [2]
  Redroot pigweed plant response rating: 0
pigweed; [3]
  Plant response rating, Redroot pigweed: 0
pigweed; [4]
  Redroot pigweed plant response rating: 0
pigweed; [5]
  Redroot pigweed plant response rating: 0
pigweed; [6]
  Redroot pigweed plant response rating: 0
pigweed; [7]
  Plant response rating, Redroot pigweed: 0
pigweed; [8]
  Redroot pigweed plant response rating: 4
rape; [1]
  Rape plant response rating: 0
rape; [2]
  Rape plant response rating: 0
rape; [3]
  Plant response rating, Rape: 0
rape; [4]
  Rape plant response rating: 0
rape; [5]
  Rape plant response rating: 0
rape; [6]
  Rape plant response rating: 0
rape; [7]
  Plant response rating, Rape: 0
rape; [8]
  Rape plant response rating: 0
soybean; [1]
  Soybean plant response rating: 0
soybean; [2]
  Soybean plant response rating: 0
soybean; [3]
  Plant response rating, Soybean: 0
soybean; [4]
  Soybean plant response rating: 1
soybean; [5]
  Soybean plant response rating: 1
soybean; [6]
  Soybean plant response rating: 0
soybean; [7]
  Plant response rating, Soybean: 1
soybean; [8]
  Soybean plant response rating: 1
Sugar beet; [1]
  Sugarbeets plant response rating: 0
Sugar beet; [2]
  Sugarbeets plant response rating: 0
Sugar beet; [3]
  Plant response rating, Sugarbeets: 0
Sugar beet; [4]
  Sugarbeets plant response rating: 0
Sugar beet; [5]
  Sugarbeets plant response rating: 0
Sugar beet; [6]
  Sugarbeets plant response rating: 0
Sugar beet; [7]
  Plant response rating, Sugarbeets: 0
Sugar beet; [8]
  Sugarbeets plant response rating: 0
velvetleaf; [1]
  Velvetleaf plant response rating: 0
velvetleaf; [2]
  Velvetleaf plant response rating: 0
velvetleaf; [3]
  Plant response rating, Velvetleaf: 0
velvetleaf; [4]
  Velvetleaf plant response rating: 0
velvetleaf; [5]
  Velvetleaf plant response rating: 0
velvetleaf; [6]
  Velvetleaf plant response rating: 0
velvetleaf; [7]
  Plant response rating, Velvetleaf: 0
velvetleaf; [8]
  Velvetleaf plant response rating: 2
wheat; [1]
  Wheat plant response rating: 0
wheat; [2]
  Wheat plant response rating: 0
wheat; [3]
  Plant response rating, Wheat: 0
wheat; [4]
  Wheat plant response rating: 0
wheat; [5]
  Wheat plant response rating: 0
wheat; [6]
  Wheat plant response rating: 0
wheat; [7]
  Plant response rating, Wheat: 0
wheat; [8]
  Wheat plant response rating: 0
Wild oat; [1]
  Wild oats plant response rating: 0
Wild oat; [2]
  Wild oats plant response rating: 0
Wild oat; [3]
  Plant response rating, Wild oats: 0
Wild oat; [4]
  Wild oats plant response rating: 0
Wild oat; [5]
  Wild oats plant response rating: 0
Wild oat; [7]
  Plant response rating, Wild oats: 0
Wild oat; [8]
  Wild oats plant response rating: 0
rice; [9]
  Rice plant response rating: 0
rice; [10]
  Rice plant response rating: 0
rice; [11]
  Rice plant response rating: 0
rice; [12]
  Rice plant response rating: 0
Smallflower flatsedge; [9]
  S. Flatsedge plant response rating: 0
Smallflower flatsedge; [10]
  S. Flatsedge plant response rating: 0
Smallflower flatsedge; [11]
  S. Flatsedge plant response rating: 0
Smallflower flatsedge; [12]
  S. Flatsedge plant response rating: 0
